Measured values from publication PMC7486399 (Nature Communications, 2020).
Several values for one entry are separate records, joined by “and”; a condition that tells them apart may be missing. Identical values can stand only once.

Tests used:
A549 cells [1] = type: cell-based, human
A549-ACE2 cells [2] = type: cell-based, human
[3] = tested on: interaction between the S1 subunit and ACE2 receptor; experiment: AFM competition binding: ACE2-derived peptides vs S1 subunit-ACE2 binding on model surface; conditions: for binding probability (BP) with peptide (Fig. 4b) / reduction in the BP (S1-ACE2 complex formation): 250 ms contact time; for binding probability (BP) with peptide (Fig. 4b): mean, N ≥ 3, 0 µM BP: 22-44 10.8724, 22-57 8.6263, 22-44-g-351-357 10.6771, 351-357 8.65885, PEG tip 2.60417; for delta binding (change of binding probability, Fig. 4c): vs 0 µM; for decrease in the BP on purified receptor: AFM on purified ACE2 receptor; for 50% inhibitory concentration (IC50): S1-ACE2 binding by AFM, estimated from 1, 10, 100 µM; for reduction in the BP (S1-ACE2 complex formation): concentration not printed in the sentence (tested 1, 10, 100 µM)
[4] = tested on: mixed culture of A549 and A549-ACE2 cells; type: cell-based, human; conditions: AFM
A549-ACE2 cells [5] = experiment: AFM S1 binding probability on A549-ACE2 cells before and after [22-57] peptide; type: cell-based, human; conditions: for BP (Fig. 5a), 100 μM peptide: 100 μM [22–57]
A549 cells [6] = experiment: AFM S1 binding probability on A549 cells before and after [22-57] peptide; type: cell-based, human; conditions: for BP (Fig. 5a), 100 μM peptide: A549 cells, 100 μM [22–57]
[7] = 1 µM peptide, ddH2O control 27.2772
[8] = 10 µM peptide, ddH2O control -35.4337
[9] = 100 µM peptide, ddH2O control -21.9737

Row | Substance | binding probability (BP) with peptide (Fig. 4b) ([3]; 1 µM peptide) | delta binding (change of binding probability, Fig. 4c) [3, 7] | binding probability (BP) with peptide (Fig. 4b) ([3]; 10 µM peptide) | delta binding (change of binding probability, Fig. 4c) [3, 8] | binding probability (BP) with peptide (Fig. 4b) ([3]; 100 µM peptide) | delta binding (change of binding probability, Fig. 4c) [3, 9] | decrease in the BP on purified receptor [3] | 50% inhibitory concentration (IC50) [3] | reduction in the BP (S1-ACE2 complex formation) [3] | decrease in the BP on living cells [4] | other results
1 | 9-O-acetyl-2-α-O-propargyl-SC [SA] | – | – | – | – | – | – | – | – | – | – | binding probability + SA (Fig. 3f) (A549 cells [1]): 4.4 and 4.6 and 7 and 7.2; binding frequency after SA injection (A549 cells [1]; A549 cells, 9-O-acetyl-sialogycans, 1 mM): ~ 7%; binding probability + SA (Fig. 3f) (A549-ACE2 cells [2]): 12.6 and 8.7 and 9 and 10.4; binding frequency after SA injection (A549-ACE2 cells [2]; […], 9-O-acetyl-sialogycans, 1 mM): ≈ 10%
2 | [22–44]: ACE2-derived peptide fragment 22–44, N-terminal helix of ACE2 (sequence in Supplementary Fig. 9) | 6.934 | -48.3738 | 4.232 | -79.2642 | 4.6224 | -75.9263 | > 70% | in the µM range | ~ 76% | > 70% | –
3 | [22–44–g–351–357]: ACE2-derived fragments 22–44 and 351–357 joined by a glycine residue (EEQAKTFLDKFNHEAEDLFYQSSGLGKGDFR) | 6.641 | -45.2583 | 4.915 | -63.4203 | 4.655 | -62.3402 | – | – | – | – | binding inhibition, result in words ([3]; compared with the other peptides): we did not notice any strong improvement in the binding inhibition
4 | [22–57]: ACE2-derived peptide fragment 22–57, N-terminal helix of ACE2 (sequence in Supplementary Fig. 9) | 6.706 | -31.3144 | 5.599 | -50.4102 | 4.167 | -74.5041 | > 70% | in the µM range | ~ 74% | > 70% | BP (Fig. 5a), 100 μM peptide (A549-ACE2 cells [5]; replicate 1 (0 μM: 17)): 9.7; BP (Fig. 5a), 100 μM peptide (A549-ACE2 cells [5]; replicate 2 (0 μM: 15.7)): 8.5; BP (Fig. 5a), 100 μM peptide (A549-ACE2 cells [5]; replicate 3 (0 μM: 29)): 4.4; BP (Fig. 5a), 100 μM peptide (A549-ACE2 cells [5]; replicate 4 (0 μM: 15.9)): 10.1; BP level after peptide injection (A549-ACE2 cells [5]; 100 µM peptide): reaching a level close to the one of the control cells; change of BP after peptide injection (A549 cells [6]; A549 cells (both cell types), 100 µM peptide): significant decrease of the BP on both cell types; BP (Fig. 5a), 100 μM peptide (A549 cells [6]; replicate 1 (0 μM: 10.8)): 4.3; BP (Fig. 5a), 100 μM peptide (A549 cells [6]; replicate 2 (0 μM: 9.7)): 4.1; BP (Fig. 5a), 100 μM peptide (A549 cells [6]; replicate 3 (0 μM: 7.7)): 1.9
5 | [351–357]: ACE2-derived peptide fragment 351–357, part of a hot binding spot (LGKGDFR; UniProt Q9BYF1 351-357, looked up, fragment) | 5.599 | -43.4556 | 6.3151 | -34.8403 | 5.339 | -54.9815 | – | – | – | – | –
6 | cRGD | – | – | – | – | – | – | – | – | – | – | binding probability + RGD (Fig. 3f) (A549 cells [1]; S1 tip on A549 cells after cRGD, 500 μM, 37 °C, individual data points): 13.1 and 7.8 and 10.6 and 9.5; reduction of the binding frequency after cRGD injection (A549-ACE2 cells [2]; A549-ACE2 cells, cRGD 500 μM): 1–2%; binding probability + RGD (Fig. 3f) (A549-ACE2 cells [2]; S1 tip on A549-ACE2 cells after cRGD, 500 μM, 37 °C, individual data points): 14.1 and 9.9 and 20.6 and 14.7
